US20250002464A1, “NOVEL COMPOUND AND PHARMACEUTICAL COMPOSITION COMPRISING SAME” (SAPIENSBIO INC., priority 2021, published 2025)

Test system: α-SMA
Assay: α-SMA expression inhibitory ability in MRC5 cell line (Western blotting)
Format: cell-based
Settings: TGF-β1 (10 ng/mL), 72 hours, relative to TGF-β1 only
Procedure: Subsequently, the inhibitory effect on pulmonary fibrosis of the compounds according to the present invention was overall evaluated. An MRC5 cell line was treated with each compound at 10 μM, and 2 hours later, treated with TGF-β1 (10 ng/mL). After 72 hours, the cells were lysed using RIPA Buffer, and then an α-SMA protein level was measured through Western blotting. The α-SMA expression level when treating the cells with each compound and TGF-β1 compared to the α-SMA expression level when treating the cells only with TGF-β1 without the compound was calculated as the α-SMA expression inhibitory ability of the corresponding compound. The α-SMA expression inhibitory ability of each compound is summarized in Table 2 below (A: inhibitory ability≥70%, B: 50%: inhibitory ability<70%, C: inhibitory ability<50%).

Structure (SMILES) | inhibition at 10 µM [%]
CC(C)CN1CCN(C(=O)C(C)N2CCN(C)CC2)c2ccccc21 (centres unmarked) [Compound 173, 1-(4-isobutyl-3,4-dihydroquinoxaline-1(2H)-yl)-2-(4-methylpiperazin-1-yl)propan-1-one] | 50 to 70
O=C(CCN1CCCC1)N1CCN(c2ccc(F)cc2)c2ccccc21 [Compound 14, 1-(4-(4-fluorophenyl)-3,4-dihydroquinoxaline-1(2H)-yl)-3-(pyrrolidin-1-yl)propan-1-one] | ≥ 70
CC(C)N1CCN(C(=O)CCN2CCCC2)c2ccccc21 [Compound 177, 1-(4-isopropyl-3,4-dihydroquinoxaline-1(2H)-yl)-3-(pyrrolidin-1-yl)propan-1-one] | < 50
O=C(CCN1CCCC1)N1CCN(C2CCCCC2)c2ccccc21 [Compound 186, 1-(4-cyclohexyl-3,4-dihydroquinoxaline-1(2H)-yl)-3-(pyrrolidin-1-yl)propan-1-one] | 50 to 70
CC(C(=O)N1CCN(c2ccccc2)c2cc(F)ccc21)N1CCCC[C@H]1C (stereo partly drawn) [Compound 8, 1-(6-fluoro-4-phenyl-3,4-dihydroquinoxaline-1(2H)-yl)-2-((R)-2-methylpiperidin-1-yl)propan-1-one] | < 50
CC(C(=O)N1CCN(Cc2ccccc2)c2ccccc21)N1CCCCC1 (centres unmarked) [Compound 82, 1-(4-benzyl-3,4-dihydroquinoxaline-1(2H)-yl)-2-(piperidin-1-yl)propan-1-one] | < 50
CC(C(=O)N1CCN(c2ccc(F)cc2)c2ccccc21)N1CCN(C)CC1 (centres unmarked) [Compound 34, 1-(4-(4-fluorophenyl)-3,4-dihydroquinoxaline-1(2H)-yl)-2-(4-methylpiperazin-1-yl)propan-1-one] | < 50
CN1CCN(CC(=O)N2CCN(Cc3cccc(Cl)c3)c3ccccc32)CC1 [Compound 104, 1-(4-(3-chlorobenzyl)-3,4-dihydroquinoxaline-1(2H)-yl)-2-(4-methylpiperazin-1-yl)ethan-1-one] | ≥ 70
O=C(CCN1CCCCC1)N1CCN(CC2CC2)c2ccccc21 [Compound 162, 1-(4-(cyclopropylmethyl)-3,4-dihydroquinoxaline-1(2H)-yl)-3-(piperidin-1-yl)propan-1-one] | < 50
CC1CCCN1CCC(=O)N1CCN(c2ccc(F)cc2)c2cc(F)ccc21 (stereo in doubt) [Compound 40, (R)-1-(6-fluoro-4-(4-fluorophenyl)-3,4-dihydroquinoxaline-1(2H)-yl)-3-(2-methylpyrrolidin-1-yl)propan-1-one] | < 50
O=C(CN1CCCCC1)N1CCN(Cc2ccccc2)c2ccccc21 [Compound 85, 1-(4-benzyl-3,4-dihydroquinoxaline-1(2H)-yl)-2-(piperidin-1-yl)ethan-1-one] | < 50
CC(C(=O)N1CCN(Cc2cccc(Cl)c2)c2ccccc21)N1CCN(C)CC1 (centres unmarked) [Compound 101, 1-(4-(3-chlorobenzyl)-3,4-dihydroquinoxaline-1(2H)-yl)-2-(4-methylpiperazin-1-yl)propan-1-one] | 50 to 70
CN1CCN(CCC(=O)N2CCN(c3ccc(F)cc3)c3ccccc32)CC1 [Compound 17, 1-(4-(4-fluorophenyl)-3,4-dihydroquinoxaline-1(2H)-yl)-3-(4-methylpiperazin-1-yl)propan-1-one di-p-toluene sulfonate] | 50 to 70
CC(C)N1CCN(C(=O)CN2CCCCC2)c2ccccc21 [Compound 184, 1-(4-isopropyl-3,4-dihydroquinoxaline-1(2H)-yl)-2-(piperidin-1-yl)ethan-1-one] | < 50
O=C(CCN1CCCCC1)N1CCN(Cc2ccncc2)c2ccccc21 [Compound 123, 3-(piperidin-1-yl)-1-(4-(pyridin-4-ylmethyl)-3,4-dihydroquinoxaline-1(2H)-yl)propan-1-one] | < 50
O=C(CN1CCCCC1)N1CCN(Cc2ccccc2Cl)c2ccccc21 [Compound 94, 1-(4-(2-chlorobenzyl)-3,4-dihydroquinoxaline-1(2H)-yl)-2-(piperidin-1-yl)ethan-1-one] | 50 to 70
CN1CCN(CCC(=O)N2CCN(c3ccccc3Cl)c3ccccc32)CC1 [Compound 127, 1-(4-(2-chlorophenyl)-3,4-dihydroquinoxaline-1(2H)-yl)-3-(4-methylpiperazin-1-yl)propan-1-one] | 50 to 70
CN1CCN(CC(=O)N2CCN(c3ccccn3)c3ccccc32)CC1 [Compound 154, 2-(4-methylpiperazin-1-yl)-1-(4-(pyridin-2-yl)-3,4-dihydroquinoxaline-1(2H)-yl)ethan-1-one di L-tartrate] | ≥ 70
CN1CCN(CCC(=O)N2CCN(Cc3ccccc3Cl)c3ccccc32)CC1 [Compound 89, 1-(4-(2-chlorobenzyl)-3,4-dihydroquinoxaline-1(2H)-yl)-3-(4-methylpiperazin-1-yl)propan-1-one] | 50 to 70

Structure (SMILES) | inhibition at 10 µM [%]
CC(C(=O)N1CCN(CC2CC2)c2ccccc21)N1CCN(C)CC1 (centres unmarked) [Compound 166, 1-(4-(cyclopropylmethyl)-3,4-dihydroquinoxaline-1(2H)-yl)-2-(4-methylpiperazin-1-yl)propan-1-one] | < 50
O=C(CCN1CCCCC1)N1CCN(Cc2ccccc2Cl)c2ccccc21 [Compound 88, 1-(4-(2-chlorobenzyl)-3,4-dihydroquinoxaline-1(2H)-yl)-3-(piperidin-1-yl)propan-1-one] | < 50
CN1CCN(CC(=O)N2CCN(c3ccccc3Cl)c3ccccc32)CC1 [Compound 133, 1-(4-(2-chlorophenyl)-3,4-dihydroquinoxaline-1(2H)-yl)-2-(4-methylpiperazin-1-yl)ethan-1-one] | 50 to 70
CN1CCN(CC(=O)N2CCN(C(=O)c3ccccc3)c3ccccc32)CC1 [Compound 204, 1-(4-benzoyl-3,4-dihydroquinoxaline-1(2H)-yl)-2-(4-methylpiperazin-1-yl)ethan-1-one] | < 50
CN1CCN(CC(=O)N2CCN(c3cccc(Cl)c3)c3ccccc32)CC1 [Compound 139, 1-(4-(3-chlorophenyl)-3,4-dihydroquinoxaline-1(2H)-yl)-2-(4-methylpiperazin-1-yl)ethan-1-one] | ≥ 70
CC(C(=O)N1CCN(Cc2ccccc2)c2ccccc21)N1CCN(C)CC1 (centres unmarked) [Compound 83, 1-(4-benzyl-3,4-dihydroquinoxaline-1(2H)-yl)-2-(4-methylpiperazin-1-yl)propan-1-one] | 50 to 70
CC(C(=O)N1CCN(c2ccccc2Cl)c2ccccc21)N1CCN(C)CC1 (centres unmarked) [Compound 130, 1-(4-(2-chlorophenyl)-3,4-dihydroquinoxaline-1(2H)-yl)-2-(4-methylpiperazin-1-yl)propan-1-one] | 50 to 70
CN1CC[C@@H](NCCC(=O)N2CCN(c3ccc(F)cc3)c3ccccc32)C1 [Compound 26, (R)-1-(4-(4-fluorophenyl)-3,4-dihydroquinoxaline-1(2H)-yl)-3-((1-methylpyrrolidin-3-yl)amino)propan-1-one] | ≥ 70
CC(C(=O)N1CCN(C(=O)c2ccccc2)c2ccccc21)N1CCCCC1 (centres unmarked) [Compound 200, 1-(4-benzoyl-3,4-dihydroquinoxaline-1(2H)-yl)-2-(piperidin-1-yl)propan-1-one] | < 50
O=C(CCN1CCCC1)N1CCN(c2ccccc2Cl)c2ccccc21 [Compound 125, 1-(4-(2-chlorophenyl)-3,4-dihydroquinoxaline-1(2H)-yl)-3-(pyrrolidin-1-yl)propan-1-one] | 50 to 70
CC(C)CN1CCN(C(=O)CN2CCCC2)c2ccccc21 [Compound 174, 1-(4-isobutyl-3,4-dihydroquinoxaline-1(2H)-yl)-2-(pyrrolidin-1-yl)ethan-1-one] | 50 to 70
CC(C(=O)N1CCN(C2CCCCC2)c2ccccc21)N1CCN(C)CC1 (centres unmarked) [Compound 192, 1-(4-cyclohexyl-3,4-dihydroquinoxaline-1(2H)-yl)-2-(4-methylpiperazin-1-yl)propan-1-one] | < 50
CC(C(=O)N1CCN(c2ccc(F)cc2)c2cc(F)ccc21)N1CCC[C@H]1C (stereo partly drawn) [Compound 54, 1-(6-fluoro-4-(4-fluorophenyl)-3,4-dihydroquinoxaline-1(2H)-yl)-2-((R)-2-methylpyrrolidin-1-yl)propan-1-one] | < 50
O=C(CCNCc1ccccn1)N1CCN(c2ccc(F)cc2)c2ccccc21 [Compound 21, 1-(4-(4-fluorophenyl)-3,4-dihydroquinoxaline-1(2H)-yl)-3-((pyridin-2-ylmethyl)amino)propan-1-one] | 50 to 70
CC(C(=O)N1CCN(c2cccc(Cl)c2)c2ccccc21)N1CCN(C)CC1 (centres unmarked) [Compound 137, 1-(4-(3-chlorophenyl)-3,4-dihydroquinoxaline-1(2H)-yl)-2-(4-methylpiperazin-1-yl)propan-1-one] | ≥ 70
CC(C(=O)N1CCN(c2cccc(Cl)c2)c2ccccc21)N1CCCC1 (centres unmarked) [Compound 136, 1-(4-(3-chlorophenyl)-3,4-dihydroquinoxaline-1(2H)-yl)-2-(pyrrolidin-1-yl)propan-1-one] | ≥ 70
N[C@H](Cc1c[nH]cn1)C(=O)N1CCN(c2ccc(F)cc2)c2cc(F)ccc21 [Compound 48, (R)-2-amino-1-(6-fluoro-4-(4-fluorophenyl)-3,4-dihydroquinoxaline-1(2H)-yl)-3-(1H-imidazol-4-yl)propan-1-one] | < 50
C[C@@H]1CCCN1CCC(=O)N1CCN(c2ccccc2)c2cc(F)ccc21 [Compound 5, (R)-1-(6-fluoro-4-phenyl-3,4-dihydroquinoxaline-1(2H)-yl)-3-(2-methylpyrrolidin-1-yl)propan-1-one] | < 50
CC(C)CN1CCN(C(=O)CCN2CCCCC2)c2ccccc21 [Compound 169, 1-(4-isobutyl-3,4-dihydroquinoxaline-1(2H)-yl)-3-(piperidin-1-yl)propan-1-one] | 50 to 70
